Measured values published in patent publication US6846933B1, “Antimycobacterial compounds and method for making the same” (priority 2000, dated 2005).
Values after ≈ are worked out from the molar mass of the structure shown. Read-outs that look alike come from different tables or passages of the source.

Key:
[1] = system: M. tuberculosis strain resistant to isoniazid (ATCC 35822); test: microbe, parasite or virus in culture; format: cell-based; conditions: Mycobacterium tuberculosis
[2] = system: M. tuberculosis strain resistant to rifampin (ATCC 35838); test: microbe, parasite or virus in culture; format: cell-based; conditions: Mycobacterium tuberculosis
[3] = ATCC35822, read-out: MIC INH-R (ug/ml)
[4] = ATCC35838, read-out: MIC RMP-R (ug/ml)

| Compound | MIC ([1]; ATCC35822, read-out: MIC of RMP vs INH-R (Comment, Table 9)) | MIC ([2]; ATCC35838, read-out: MIC of RMP vs RMP-R (Comment, Table 9)) | MIC [1, 3] | MIC [2, 4] |
| --- | --- | --- | --- | --- |
| CO[C@H]1/C=C/O[C@@]2(C)Oc3c(C)c(O)c4c(O)c(c(/C=N/N5CCN(C)CC5)c(O)c4c3C2=O)NC(=O)/C(C)=C\C=C\[C@H](C)[C@H](O)[C@@H](C)[C@@H](O)[C@@H](C)[C@H](OC(C)=O)[C@@H]1C [RMP, rifampin, reference compound] | 0.5 µg/mL | > 8 µg/mL |  |  |
| CC(C)=CCCC(C)C/C=N/NC(=O)c1ccncc1 (stereo not shown) [Sample ID 102044] |  |  | 3.13 µg/mL (≈ 11.4 µM) | < 0.1 µg/mL |
| COc1ccc(/C=N/NC(=O)c2ccncc2)cc1 [Sample ID 102866] |  |  | 3.25 µg/mL (≈ 12.7 µM) | < 0.05 µg/mL |
| O=C(NN=C1CCCC1)c1ccncc1 [Sample ID 111298] |  |  | > 0.75 µg/mL | 0.05 µg/mL (≈ 0.246 µM) |
| CC1C/C(=N/NC(=O)c2ccncc2)CC(C)(C)C1 (stereo not shown) [Sample ID 114353] |  |  | < 6.25 µg/mL | < 0.1 µg/mL |
| O=C(N/N=C/c1cc(Cl)ccc1Cl)c1ccncc1 [Sample ID 117150] |  |  | > 3.25 µg/mL | < 0.05 µg/mL |
| CCOC(=O)/C(CCc1ccccc1)=N\NC(=O)c1ccncc1 [Sample ID 132358] |  |  | > 3.2 µg/mL | 0.1 µg/mL (≈ 0.307 µM) |
| O=C(N/N=C/C=C(c1ccccc1)c1ccccc1)c1ccncc1 [Sample ID 132532] |  |  | > 3.2 µg/mL | 0.1 µg/mL (≈ 0.305 µM) |
